From US8541607B2, “Disulfide, sulfide, sulfoxide, and sulfone derivatives of cyclic sugars and uses thereof” (Lacer, S.A., priority 2003, dated 2013)

Assays:
arterial rings = assay: Test of vasorelaxation on arterial rings contracted with phenylephrine; format: cell-based; conditions: artery ring contracted with 1 μM Phenylephrine; mean ± s.d.; read-out: EC50 (vasodilatation equal to 50% of the maximum tone)
Protocol: The method used in the assays is substantially the same as described in following references: • * Furchgot, R. F., “Methods in nitric oxide research”; Feelisch & Stamler, eds., John Wiley & Sons, Chichester, England, pp 567-581. • * Trongvanbichnam K., et al., Jpn. J. Pharmacol. 71 (1996); 167-173. • * Sales, E., at al., Eur. J. Pharmacol. 258 (1994); 47-55.
The different compounds are tested at 5 different concentrations, at a concentration range from 0.0001 to 10 mM, using from 6 to 9 arterial rings for each compound. The obtained results are compared to those from the isosorbide 5-mononitrate, which is used as reference product.
The results are shown in table 1 below and are provided as EC50 (effective concentration 50), which is the concentration of each of the tested, compounds yielding a vasodilatation equal to 50% of the maximum tone at which the artery ring has been contracted with 1 μM of Phenylephrine.

[1] = test system: platelets (Human Platelet Rich Plasma); assay: In vitro inhibition of ADP-induced platelet aggregation; format: cell-based; conditions: submaximal ADP (1-4 μM), mean ± s.d.
Protocol: The method used in the assays is substantially the same as described in following reference: • * Sales, E., at al., Br. J. Pharmacol. 112 (1994); 1071-1076.
The compounds are tested at four different concentrations, using platelet rich plasma from not less than 6 different healthy human donors. The results obtained are compared to those from 5-isosorbide mononitrate, which is used as reference product.
The results are shown in table 2 and are expressed as IC50 (inhibitory concentration 50), which is the concentration of each of the tested compounds yielding an inhibition equal to 50% of the aggregation obtained with a submaximal concentration (1-4 μM) of ADP (a submaximal concentration of ADP is the minimal amount of ADP which produces the maximal aggregation).

[2] = test system: U937 monocyte adhesion to activated HMEC-1 human endothelial cells; assay: Inhibition of U937 monocyte adhesion to TNF-α activated HMEC-1; format: cell-based; conditions: HMEC-1 activated by TNF-α (50 ng/ml); mean ± s.e.m.
Excerpt: The methods used in the assays to determine the effect of the compounds on platelet and monocyte adhesion to human endothelial cells are substantially the same as described in the following references: • Del Maschio A. et al., J Cell Biol 1996; 135: 497-510 • Bombeli T. et al., Blood 1999; 93: 3831-3838 • Colomé C. et al; Atherosclerosis 2000; 149: 295-302; and • Martin-Satue M. at al; British Journal of Cancer 1999; 80; 1169-1174
The adhesion of the U937-monocyte cells to confluent human microvasculature endothelial cells (HMEC-1) activated by means of TNF-α (50 ng/ml) and the platelets to human umbilical endothelial cells (HUVEC) were the methods used to determine the inhibitory effect of compounds on cellular adhesion. The adhesion of monocytes previously labeled with calcein-2M (Molecular Probes) to HMEC-1 activated by TNF-α, was assessed by determination of the associated-cell fluorescence. The adhesion of washed human platelets previously labeled with MoAb against CD36-FITC to activated-HUVEC (50 μg/ml of LDL minimally modified, LDLmm) was determined by Laser Scanning Cytometry (LSC, Olympus) determining the associated-cell fluorescence. Results are expressed as the percentage of inhibition respect to control (adhesion of the cells in the absence of compounds).

[3] = test system: Rats, left carotid artery thrombosis (FeCl3); assay: In vivo antithrombotic effect, FeCl3 carotid artery thrombosis; parameters: species or system rat; conditions: single oral dose of 100 mg/Kg; no occlusion during 60 min after FeCl3 patch
Protocol: The method used is substantially the same as described by Kurz (Kurz K. D., et al., Thromb. Res. 1990, 60:269-280) and modified by Feuerstein (Feuerstein G. Z., et al., Artherioscler. Thromb. Vase. Biol. 1999, 19: 2554-25562).
Rats received a single oral dose of 100 mg/Kg of the compounds.
Forty-five minutes after dosing rats were anaesthetized with sodium pentobarbital (40 mg/kg, i.p.) and they were placed later dorsally on a heated (37° C.) surgical board.
The left carotid artery was isolated and a Parafilm 4 sheet (7×20 mm, American National Can) was placed under it. An electromagnetic sounding of flow (Transonic Systems Inc.) was placed on the artery to measure blood flow.
Sixty minutes after product administration, a paper patch saturated with FeCl3 solution (70%) was placed (and not removed for the whole duration of the experiment) on the left carotid artery downstream from the sounding of flow to initiate thrombosis. The blood flow was controlled during the 60 min later to the application of the patch in the artery.
The vessel was considered totally occluded by the thrombus formed when no blood flow was detected (0.0 ml/min). In this model, thrombus formation usually takes place within 15 to 20 minutes in non-treated animals.

HUVEC cells = assay: In vitro protection against cytotoxicity induced by oxygen radicals (peroxynitrite), XTT method; format: cell-based, human; conditions: HUVEC pre-treated with 50 μM compound for one hour, then 800 μM peroxynitrite overnight
Excerpt: The method used is substantially the same as described by Caveda L., et al. (J. Clin. Invest. […]; 98: 886-893).
For the determination of the capacity to inhibit the cytotoxicity induced by oxygen radicals Human Umbilical Vein Endothelial Cells (HUVEC) were used. HUVEC were isolated and cultured in M199 and 20% FCS (Fetal Calf Serum).
Test XTT assay is based on […] by the metabolically active cells of the salt of tetrazolio XTT to form an orange product, the formazan dye formed is soluble and is directly quantified using an spectrophotometer.
HUVEC cells were cultivated until a sub-confluence status in a 96 well tissue culture plate and pre-treated with 50 μM of the compound for one hour. After that, cells were treated with 800 μM of peroxynitrite for an overnight.
After overnight incubation cells were incubated with the yellow XTT solution (final concentration 0.3 mg/ml) for 4 hours. After this incubation period, orange formazan solution was formed, which was spectrophotometrically quantified using an ELISA plate reader at 450 nm
The results are shown in table 15 and are expressed as percentage of death cells.

| SMILES | EC50 (arterial rings) [µM] | IC50 [1] [µM] | % of inhibition to control, U937 monocyte adhesion [2] [%] | % of animals fully protected [3] [%] | % of death cells (HUVEC cells) [%] |
| --- | --- | --- | --- | --- | --- |
| O=[N+]([O-])O[C@@H]1CO[C@H]2[C@@H]1OC[C@@H]2S [(1), 2-thioisosorbide 5-mononitrate] | 41 ± 6 | 110 ± 10 | 30 ± 8 | 100 | 80 |
| CC(=O)S[C@H]1CO[C@H]2[C@@H]1OC[C@H]2O[N+](=O)[O-] [(12), 2-acetylthio-isosorbide-5-mononitrate] | 23 ± 10 | 89 ± 10 | 15 ± 2 | 71 | 50 |
